Our source for the EC50 and cell count values is PubChem BioAssay AID2124 (Sanford-Burnham Center for Chemical Genomics, 2009).

In test [1] the test system is cells, GFP-channel autofluorescence, high-content imaging. The experiment in a line: cell-permeable autofluorescent compounds in GFP channel, dose response, artefact control, imaging, high-content imaging (AID 2124).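 On cell count: cells exposed to compound for 48 hours before fixing.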
Experiment in test [2]: as above
To be noted: cells, GFP-channel autofluorescence, high-content imaging; cell count; at 10 µM.

Inconclusive results are not listed. Calls of active or inactive are those of the source. How the calls were made is not given here; tested in MIN6 cells. Bounds are passed on as bounds.

One may read the EC50 as the concentration at which the effect is half-maximal. In the case of `Cc1cccc(N=Cc2[nH]c3ccc(Br)c(Cl)c3c2O)c1`, the EC50 in test [1] is > 16 µM (inactive). In addition, the cell count in test [2] worked out at 3340 cells.

For `C/C(=N\Nc1ccc([N+](=O)[O-])cc1)c1cc2ccccc2o1`, in test [1], the EC50 is 8.87 µM. In addition, in test [2], the cell count turned out to be 2980 cells.

Turning to `CCCN1C(=O)S/C(=C\c2ccc(N3CCOCC3)o2)C1=O`, in test [1], the EC50 is > 16 µM (inactive). In addition, the cell count in test [2] was 194 cells.

For `CN1/C(=C\C=C(/C#N)C(=O)Nc2ccccc2F)C(C)(C)c2ccccc21`, the EC50 in test [1] was 6.93 µM. In test [2], this compound returned a cell count of 2910 cells.

Turning to `N#C/C(=C\c1ccc(N2CCOCC2)o1)C(=O)NCCc1ccccc1`, in test [1], the EC50 was 8.69 µM. This compound also returned a cell count in test [2] of 3060 cells.

Turning to `O=C1c2cccc3c(O)ccc(c23)C(=O)N1Cc1ccccc1`, in test [1], the EC50 is > 16 µM (inactive). The cell count in test [2] was 2660 cells.

`Nc1c(C(=O)Nc2nc3ccccc3s2)sc2nc(-c3cccs3)ccc12`: the EC50 in test [1] is 8.63 µM. In test [2], this compound displayed a cell count of 217 cells.

With `O=C(O)c1cc(-c2ccc(/C=C3/SC(=S)N(Cc4ccccc4)C3=O)o2)ccc1Cl`, the EC50 in test [1] was 7.47 µM. In addition, the cell count in test [2] amounted to 2840 cells.

For the compound `Nc1c(C(=O)c2ccccc2)sc2nsc(SCCN3CCCC3)c12`, the EC50 in test [1] was 7.98 µM. The same compound showed a cell count in test [2] of 2210 cells.

In the case of `COc1cc(OC)c(-c2c3cc(O)c(=O)cc-3oc3cc(O)c(O)cc23)cc1OC`, the EC50 in test [1] was 13.5 µM (inactive). The compound also showed a cell count in test [2] of 3000 cells.

Take `CCN1CC=C2C(C#N)=C(N)C(C#N)(C#N)C(CCc3ccccc3)C2C1` (stereo unspecified): in test [1], the EC50 is 9.3 µM. In addition, the cell count in test [2] was 3160 cells.

Regarding `CCOC(=O)N1CCN(/C=C(\C#N)c2nc3ccccc3s2)CC1`, in test [1], the EC50 is 11.7 µM (inactive). For the same compound, in test [2], the cell count turned out to be 2980 cells.

`N#C/C(=C\N1CCN(Cc2ccc3c(c2)OCO3)CC1)c1nc2ccccc2s1`: in test [1], the EC50 was 10.7 µM (inactive). The cell count in test [2] worked out at 3300 cells.

As to `Cc1ccc(N2C(=O)C3C(C(=O)c4ccccc4)=NN(c4ccccc4)C3C2=O)cc1` (stereo unspecified), the EC50 in test [1] is > 16 µM (inactive). The compound also registered a cell count in test [2] of 2980 cells.

Regarding `Cn1c(/C(C#N)=C/c2ccc(-c3ccc(S(N)(=O)=O)cc3)o2)nc2ccccc21`, the EC50 in test [1] is 8.08 µM. The cell count in test [2] turned out to be 2680 cells.

Regarding `COc1ccc(CN=Cc2[nH]c3ccc(Br)c(Cl)c3c2O)cc1`, in test [1], the EC50 is > 16 µM (inactive). Moreover, in test [2], the cell count was 3150 cells.

For the compound `CCCN1C=CC(=C/C=C(\C#N)C(=O)OCC)C=C1`, the EC50 in test [1] is 6.81 µM. Also, in test [2], the cell count is 2900 cells.

`Cc1ccc(NS(=O)(=O)c2cc([N+](=O)[O-])ccc2N/N=C/c2sc(N3CCOCC3)nc2-c2ccccc2)c(C)c1`: in test [1], the EC50 was 4.45 µM. This compound yielded a cell count in test [2] of 2790 cells.

As to `CCN(CC)c1ccc(/C=C(\C#N)C(=O)c2ccc(Br)cc2)cc1`, the EC50 in test [1] is 5.14 µM. Moreover, the cell count in test [2] was found to be 2740 cells.

With `Cc1oc(C)c2c(=O)ccc3c(c12)OC(N)=C(C#N)C3c1ccc(F)cc1` (stereo unspecified), the EC50 in test [1] was > 16 µM (inactive). The same compound returned a cell count in test [2] of 2880 cells.

As for `O=c1oc2c3c4c(cc2c(C(F)(F)F)c1CCN1CCOCC1)CCCN4CCC3`, the EC50 in test [1] was 8.25 µM. This compound also yielded a cell count in test [2] of 3400 cells.

Regarding `COc1ccc(C(=O)/C=C/c2ccc(N(C)C)cc2)c(OC)c1`, the EC50 in test [1] is 9.89 µM. Besides, the cell count in test [2] was found to be 2380 cells.

Turning to `Cc1c(N=C2N=C(NC(=O)c3cccs3)c3ccccc32)c(=O)n(-c2ccccc2)n1C`, the EC50 in test [1] is 11.8 µM (inactive). Besides, in test [2], the cell count is 2570 cells.

In the case of `CCN(CC)c1ccc2cc(C(N)=O)/c(=N\NC(=O)c3ccncc3)oc2c1`, in test [1], the EC50 is 9.35 µM. The compound also had a cell count in test [2] of 3100 cells.

For `COc1cc([C@@H]2[C@H]3CN(C)CC=C3C(C#N)=C(N)C2(C#N)C#N)cc2c1OCO2`, the EC50 in test [1] is 9.32 µM. In addition, the cell count in test [2] was determined as 3070 cells.

Consider `O=C(O)c1ccccc1N/N=C/c1c(Sc2nnnn2-c2ccccc2)nc2ccccn2c1=O`, for which the EC50 in test [1] is 10.7 µM (inactive). Moreover, in test [2], the cell count came out at 3260 cells.

On to `C=CCN1C(=O)c2cccc3c(N4CCCCC4)ccc(c23)C1=O`, for which the EC50 in test [1] was 6.64 µM. In test [2], this compound gave a cell count of 3300 cells.

In the case of `O=C1S/C(=C\c2ccc(N3CCOCC3)o2)C(=O)N1c1ccccc1`, in test [1], the EC50 was > 16 µM (inactive). Moreover, the cell count in test [2] is 1060 cells.

Turning to `CCN(CC)c1ccc2cc(-c3nc(-c4ccc(OC)cc4)cs3)c(=O)oc2c1`, the EC50 in test [1] is > 16 µM (inactive). Moreover, the cell count in test [2] was 2750 cells.

Turning to `C=CCN1C=CC(=CC=C(C#N)C#N)C=C1`, in test [1], the EC50 was 8.1 µM. In test [2], this compound gave a cell count of 2960 cells.

Regarding `CC(=O)Nc1ccc(N=Cc2c(O)c(C(=O)Nc3ccccc3)cc3ccccc23)cc1`, the EC50 in test [1] was 11.1 µM (inactive). Further, the cell count in test [2] was determined as 1540 cells.

On to `Cc1c(-c2ccc(O)cc2)nc2nc(-c3ccccc3)c(-c3ccccc3)nn12`, for which the EC50 in test [1] is > 16 µM (inactive). In test [2], this compound gave a cell count of 3200 cells.

In the case of `Cc1cc(/C=C2/C(=O)N(C)C(=S)N2C)ccc1N1CCCC1`, the EC50 in test [1] was 3.02 µM. Also, the cell count in test [2] is 2680 cells.
